Data published in US20070010671A1, “Novel quinazoline derivatives and methods of treatment related to the use thereof” (priority 2003, published 2007).
Where a name gives a salt, the structure may show the parent alone.

These molecules were tested against MCH receptor (Homo sapiens, UniProt Q99705) (assay: High throughput functional screening FLIPR/FDSS6000: inhibition of MCH-evoked intracellular Ca2+ changes). Details: antagonist activity, 50 nM of MCH, FLIPR or FDSS; read-out: IC50.
Type: cell-based
Excerpt: Subsequently, a functional based assay was used to confirm the lead hits, referred to as FLIPR™ (the Fluorometric Imaging Plate Reader) and FDSS6000™ (Functional Drug Screening System). This assay utilized 3 non-endozenous, constitutively active version of the MCH receptor.
The FLIPR and FDSS assays are able to detect intracellular Ca^2+ concentration in cells, which can be utilized to assess receptor activation and determine whether a candidate compound is an, for example, antagonist, inverse agonist or agonist to a Gq-coupled receptor. The concentration of free Ca^2+ in the cytosol of any cell is extremely low, whereas its concentration in the extracellular fluid and endoplasmic reticulum (ER) is very high. Thus, there is a large gradient tending to drive Ca^2+ into the cytosol across both the plasma membrane and ER. The FLIPR™ and FDSS6000™ systems (Molecular Devices Corporation, HAMAMATSU Photonics K.K.) are designed to perform functional cell-based assays, such as the measurement of intracellular calcium for high-throughput screening, The measurement of fluorescent is associated with calcium release upon activation of the Gq-coupled receptors.
Fluorometric Imaging Plate Reader system was used to allow for rapid, kinetic measurements of intracellular fluorescence in 96 well microplates (or 384 well microplates). Simultaneous measurements of fluorescence in all wells can be made by FLIPR or FDSS6000™ every second with high sensitivity and precision. These systems are ideal for measuring cell-based functional assays such as monitoring the intracellular calcium fluxes that occur within seconds after activation of the Gq coupled receptor.
Briefly, the cells are seeded into 96 well at 5.5×10^4 cells/well with complete culture media (Dulbecco's Modified Eagle Medium with 10% fetal bovine serum, 2 mMi L-glutamine, 1 mM sodium pyruvate and 0.5 mg/ml G418, pH 7.4) for the assay next day. On the day of assay, the media is removed and the cells are incubated with 100 μl of loading buffer (4 μM Fluo4-AM in complete culture media containing 2.5 mM Probenicid, 0.5 mg/ml and 0.2% bovine serum albumin) in 5% CO2 incubator at 37° C. for 1 hr. The loading buffer is removed, and the cells are washed with wash buffer (Hank's Balanced Salt Solution containing 2.5 mM Probenicid, 20 mM HEPES, 0.5 mg/ml and 0.2% bovine serum albumm, pH 7.4)). One hundred fifty μl of wash buffer containing various concentrations of test compound is added to the cells, and the cells are incubated in 5% CO2 incubator at 37° C. for 3 min. Fifty μl of wash buffer containing various concentration of MCH are added to each well, and transient changes in [Ca^2+]i evokled bee MCH are monoitored using the FLIPR, or FDSS in 96 shell plates at Ex. 488 nm and Em. 530 nm for 290 second. When antagonist activity of compound is tested, 50 nM of MCH is used.
Use of FLIPR™ and FDSS6000™ can be accomplished by following manufacturer's instruction (Molecular Device Corporation and HAMAMATSU Photonics K.K.).

Row | IC50 | Structure (SMILES)
1 | 13 nM | CN(C)c1nc(N[C@H]2CC[C@@H](CNC(=O)Nc3cccc(Cl)c3Cl)CC2)nc2ccccc12 [Example 2, 1-(2,3-Dichloro-phenyl)-3-[cis-4-(4-dimethylamino-quinazolin-2-ylamino)-cyclohexylmethyl]-urea hydrochloride]
2 | 4.9 nM | CN(C)c1nc(N[C@H]2CC[C@@H](CNC(=O)Nc3c(Cl)cccc3Cl)CC2)nc2ccccc12 [Example 3, 1-(2,6-Dichloro-phenyl)-3-[cis-4-(4-dimethylamino-quinazolin-2-)ylamino)-cyclohexylmethyl]-urea hydrochloride]
3 | 3.3 nM | Cc1cccc(Oc2ncccc2C(=O)N[C@H]2CC[C@@H](Nc3nc(N(C)C)c4ccccc4n3)CC2)c1 [Example 898, N-(cis-4-{[4-(Dimethylamino)quinazolin-2-yl]amino}cyclohexyl)-2-(3-methylphenoxy)-nicotinamide trifluoroacetate]
4 | 0.97 nM | CN(C)c1nc(N[C@H]2CC[C@@H](NC(=O)COc3ccc(F)c(F)c3)CC2)nc2ccccc12 [Example 909, 2-(3,4-Difluorophenoxy)-N-(cis-4-{[4-(dimethylamino)quinazolin-2-yl]amino}cyclohexyl)-acetamide trifluoroacetate]

Row | Structure (SMILES) | IC50
5 | COc1ccc(NC(=O)N[C@H]2CC[C@@H](Nc3nc(N(C)C)c4ccccc4n3)CC2)cc1OC [Example 1, 1-(3,4-Dimethoxy)-phenyl)-3-[cis-4-(4-dimethylamino-quinazolin-2-ylamino)-cyclohexyl-urea hydrochloride] | 13 nM

Same assay, conditions: class by percent of control at 10^-7 M or IC50

Row | Structure (SMILES) | class
6 | CC(NC(=S)N[C@H]1CC[C@@H](Nc2nc(N(C)C)c3ccccc3n2)CC1)c1ccc(F)cc1 (relative stereo) [compound 273, N-(cis-4-{[4-(dimethylamino)quinazolin-2-yl]amino}cyclohexyl)-N′-[1-(4-fluorophenyl)ethyl]thiourea] | 2 (Class 2: The value of percent of control at 10^−7 M was from 40% to 60% or the value of IC50 was from 50 nM to 200 nM.)
7 | CC(NC(=S)N[C@H]1CC[C@@H](Nc2nc(N(C)C)c3ccccc3n2)CC1)c1ccccc1 (relative stereo) [compound 283] | 2 (Class 2: The value of percent of control at 10^−7 M was from 40% to 60% or the value of IC50 was from 50 nM to 200 nM.)
8 | CCOC(=O)[C@H](Cc1ccccc1)NC(=O)N[C@H]1CC[C@@H](Nc2nc(N(C)C)c3ccccc3n2)CC1 (relative stereo) [compound 336, ethyl N-{[(cis-4-{[4-(dimethylamino)quinazolin-2-yl]amino}cyclohexyl)amino]carbonyl}phenylalaninate] | 1 (Class 1: The value of percent of control at 10^−7 M was less than 40% or the value of IC50 was less than 50 nM.)
9 | CN(C)c1nc(N[C@H]2CC[C@@H](NC(=S)NC3CC4CCC3C4)CC2)nc2ccccc12 (relative stereo) [compound 377] | 1 (Class 1: The value of percent of control at 10^−7 M was less than 40% or the value of IC50 was less than 50 nM.)
10 | CN(C)c1nc(N[C@H]2CC[C@@H](NC(=S)NC3CC4C=CC3C4)CC2)nc2ccccc12 (relative stereo) [compound 378] | 3 (Class 3: The value of percent of control at 10^−7 M was more than 60% or the value of IC50 was more than 200 nM.)
11 | CN(C)c1nc(N[C@H]2CC[C@@H](CNC(=O)NC34CC5CC(CC(C5)C3)C4)CC2)nc2ccccc12 (relative stereo) [compound 406] | 3 (Class 3: The value of percent of control at 10^−7 M was more than 60% or the value of IC50 was more than 200 nM.)
12 | CCOC(=O)[C@H](CC(C)C)NC(=O)NC[C@H]1CC[C@@H](Nc2nc(N(C)C)c3ccccc3n2)CC1 (relative stereo) [compound 435, ethyl N-({[(cis-4-{[4-(dimethylamino)quinazolin-2-yl]amino}cyclohexyl)methyl]amino}carbonyl)leucinate] | 1 (Class 1: The value of percent of control at 10^−7 M was less than 40% or the value of IC50 was less than 50 nM.)
13 | COC(=O)[C@H](CCSC)NC(=O)NC[C@H]1CC[C@@H](Nc2nc(N(C)C)c3ccccc3n2)CC1 (relative stereo) [compound 442, methyl N-({[(cis-4-{[4-(dimethylamino)quinazolin-2-yl]amino}cyclohexyl)methyl]amino}carbonyl)methioninate] | 2 (Class 2: The value of percent of control at 10^−7 M was from 40% to 60% or the value of IC50 was from 50 nM to 200 nM.)
14 | CC(NC(=O)NC[C@H]1CC[C@@H](Nc2nc(N(C)C)c3ccccc3n2)CC1)c1cccc2ccccc12 (relative stereo) [compound 461] | 3 (Class 3: The value of percent of control at 10^−7 M was more than 60% or the value of IC50 was more than 200 nM.)
15 | COC(=O)[C@H](Cc1ccccc1)NC(=O)NC[C@H]1CC[C@@H](Nc2nc(N(C)C)c3ccccc3n2)CC1 (relative stereo) [compound 462] | 3 (Class 3: The value of percent of control at 10^−7 M was more than 60% or the value of IC50 was more than 200 nM.)
16 | CC(NC(=O)NC[C@H]1CC[C@@H](Nc2nc(N(C)C)c3ccccc3n2)CC1)c1ccccc1 (relative stereo) [compound 465, N-[(cis-4-{[4-(dimethylamino)quinazolin-2-yl]amino}cyclohexyl)methyl]-N′-(1-phenylethyl)urea] | 2 (Class 2: The value of percent of control at 10^−7 M was from 40% to 60% or the value of IC50 was from 50 nM to 200 nM.)
17 | CC(NC(=O)NC[C@H]1CC[C@@H](Nc2nc(N(C)C)c3ccccc3n2)CC1)c1ccc(Br)cc1 (relative stereo) [compound 575] | 3 (Class 3: The value of percent of control at 10^−7 M was more than 60% or the value of IC50 was more than 200 nM.)
18 | CN(C)c1nc(N[C@H]2CC[C@@H](CNC(=S)NCC3CCCO3)CC2)nc2ccccc12 (relative stereo) [compound 620] | 2 (Class 2: The value of percent of control at 10^−7 M was from 40% to 60% or the value of IC50 was from 50 nM to 200 nM.)
19 | CN(C)c1nc(N[C@H]2CC[C@@H](CNC(=S)NC34CC5CC(CC(C5)C3)C4)CC2)nc2ccccc12 (relative stereo) [compound 624] | 3 (Class 3: The value of percent of control at 10^−7 M was more than 60% or the value of IC50 was more than 200 nM.)
20 | CC(NC(=S)NC[C@H]1CC[C@@H](Nc2nc(N(C)C)c3ccccc3n2)CC1)c1ccc(F)cc1 (relative stereo) [compound 697] | 2 (Class 2: The value of percent of control at 10^−7 M was from 40% to 60% or the value of IC50 was from 50 nM to 200 nM.)
21 | CC(NC(=S)NC[C@H]1CC[C@@H](Nc2nc(N(C)C)c3ccccc3n2)CC1)c1ccccc1 (relative stereo) [compound 707] | 3 (Class 3: The value of percent of control at 10^−7 M was more than 60% or the value of IC50 was more than 200 nM.)
22 | CCOC(=O)[C@H](Cc1ccccc1)NC(=O)NC[C@H]1CC[C@@H](Nc2nc(N(C)C)c3ccccc3n2)CC1 (relative stereo) [compound 756] | 3 (Class 3: The value of percent of control at 10^−7 M was more than 60% or the value of IC50 was more than 200 nM.)

Same assay, conditions: class by percent of control at 10^-7 M or by IC50; read-out: class

Row | IC50 | Structure (SMILES)
23 | > 200 nM | CN(C)c1nc(N[C@H]2CC[C@@H](NC(=S)NC34CC5CC(CC(C5)C3)C4)CC2)nc2ccccc12 (relative stereo) [compound 200]
24 | 50 to 200 nM | CN(C)c1nc(N[C@H]2CC[C@@H](CNC(=S)NC3CC4CCC3C4)CC2)nc2ccccc12 (relative stereo) [compound 798]
25 | 50 to 200 nM | CN(C)c1nc(N[C@H]2CC[C@@H](CNC(=S)NC3CC4C=CC3C4)CC2)nc2ccccc12 (relative stereo) [compound 799, N-bicyclo[2.2.1]hept-5-en-2-yl-N′-[(cis-4-{[4-(dimethylamino)quinazolin-2-yl]amino}cyclohexyl)methyl]thiourea]
26 | > 200 nM | CN(C)c1nc(N[C@H]2CC[C@@H](C(=O)NCc3ccc(F)cc3F)CC2)nc2ccccc12 [Example 922, cis-N-(2,4-Difluorobenzyl)-4-{[4-(dimethylamino)quinazolin-2-yl]amino}cyclohexanecarbozamide]

Same assay, conditions: class by percent of control at 10^−7 M or by IC50; read-out: class

Row | IC50 | Structure (SMILES)
27 | 50 to 200 nM | CN(C)c1nc(N[C@H]2CC[C@@H](C(=O)NCc3ccccc3)CC2)nc2cc(F)c(F)cc12 [Example 992, cis-N-benzyl-4-{[4-(dimethylamino)-6,7-difluoroquinazolin-2-yl]amino}cyclohexanecarboxamide]
